Values joined by “and” are separate entries in the source; they are usually repeats but may differ in a detail not shown here. Identical values can stand only once. Like-named read-outs stand apart in the source and are kept apart here.
Experiments:
[1] = test system: P. aeruginosa ATCC 15442 biofilms; assay: High-throughput biofilm susceptibility screening with checkerboard plates (Calgary Biofilm Device), OD650 endpoint; type: cell-based, Pseudomonas aeruginosa
[2] = test system: nitrate reductase (NR); assay: Nitrate reductase activity of cytosolic fractions of treated cultures (methyl viologen assay); type: biochemical, Pseudomonas aeruginosa; details: cells grown with 1 mM CuSO4 and/or 25 ppm Polycide®
Method: (§1) FIGS. 6A-C. Cell survival and nitrate (NO3) reduction by anaerobic P. aeruginosa ATCC 15442 cultures grown in the presence of Cu^2+ and Polycide®, alone and in combination. An aerobic starter culture was grown overnight in TSB and this was diluted 1 in 500 to get a starting cell count of 1×10^7 CFU/mL for anaerobic cultures. These cells were grown in BHI broth, with and without the addition of 1 mM KNO3, for 6 h prior to the addition of 1 mM CuSO4, 25 ppm Polycide , or 1 mM CuSO4+25 ppm Polycide®. Following an additional 48 h incubation at 37° C., aliquots were removed to determine (FIG. 6A) mean viable cell counts and (FIG. 6B) log-killing. Remaining cells from anaerobic cultures were lysed and fractionated into cytosolic and membrane components. The cytosolic components were assayed for (FIG. 6C) nitrate reductase (NR) activity. In this figure, each bar represents the mean and standard deviation of 3 to 8 independent replicates. NR activity calculations were corrected for baseline shifts in spectrophotometric measurements caused by the presence of oxygen in water, which reacts with reduced methyl viologen over time.
Protein fractionation and nitrate reduction assays. […] Nitrate reductase activity was determined spectrophotometrically at 575 nm for cytoplasmic fractions, using methyl viologen as an electron donor, as previously described (Jones et al., 1977; Magalon et al., 1998).

[3] = test system: P. aeruginosa ATCC 27853 biofilms; assay: Confocal-laser scanning microscopy (CLSM) with Live/Dead staining of biofilms; type: cell-based, Pseudomonas aeruginosa; details: 8 mM Cu^2+ and/or 200 ppm Polycide®, qualitative
Method: Confocal-laser scanning microscopy (CLSM). Pegs were broken from the lid of the CBD using needle nose pliers. Cell viability staining of P. aeruginosa ATCC 27853 biofilms using the Live/Dead® BacLight™ Kit (Molecular Probes, Burlington, ON, Canada) was carried out according to the method as previously described (Harrison et al., 2007). Here, biofilms exposed to metals and/or biocides were rinsed twice with 0.9% saline and then stained with Syto-9 and propidium iodide at 30° C. for 30 min. Fluorescently labeled biofilms were placed in two drops of 0.9% saline on the surface of a glass coverslip. These pegs were examined using a Leica DM IRE2 spectral confocal and multiphoton microscope with a Leica TCS SP2 acoustic optical beam splitter (AOBS) (Leica Microsystems, Richmond Hill, ON, Canada) as previously described (Harrison el al., 2007). To eliminate artefacts associated with single wavelength excitation, Live/Dead® stained samples were sequentially scanned, frame-by-frame, first at 488 nm and then at 543 nm. Fluorescence emission was then sequentially collected in the green and red regions of the spectrum. […]
Up to this point, the inventors have assessed the antimicrobial action of Cu^2+ and Polycide® using viable cell counting; however, there is an alternate method of assessing biofilm cell survival: CLSM in conjunction with Live/Dead® staining. […]

[4] = test system: microaerobic cultures of P. aeruginosa ATCC 15442; assay: Cell survival of microaerobic (anaerobic) planktonic cultures; type: cell-based, Pseudomonas aeruginosa; details: 1 mM CuSO4 and/or 25 ppm Polycide®, 48 h at 37° C., BHI broth
Method: as §1
Strains and growth media. All of the microbial strains used in this study are summarized in TABLE 1 and all were stored at −70° C. in Microbank™ vials (ProLab Diagnostics, Toronto, Canada) according to the manufacturer's directions. […]

[5] = 5 min exposure, double distilled water, single agent, median
[6] = 30 min exposure, double distilled water, single agent, median
[7] = 24 h exposure, 10% tryptic soy broth/0.9% NaCl, single agent, median

Compound | Biofilm minimum bactericidal concentration (MBCb) [1, 5] | Biofilm minimum bactericidal concentration (MBCb) [1, 6] | Biofilm minimum bactericidal concentration (MBCb) [1, 7] | Nitrate reduction capacity / NR activity of cell lysates [2] | Bacterial cell survival in biofilms by Live/Dead staining [3] | Biofilm minimum bactericidal concentration (MBCb) [1] | Effect on microaerobic cultures (viable cell counts, log-killing) [4]
O=[N+]([O-])[O-].[Ag+] [Ag^+, silver nitrate] | >19 mM | >19 mM | >19 mM |  |  |  | 
O=S(=O)([O-])[O-].[Cu+2] [Cu^2+, cupric sulfate] |  |  |  | significantly reduced capacity for nitrate reduction | killed a significant portion of the bacterial population | >32 mM and 32 mM | bacteriostatic
CC(C)O [Isopropyl Alcohol, Isopropyl alcohol] | 0.50% | 0.50% | 0.50% |  |  |  | 
O=[Se]([O-])[O-].[Na+].[Na+] [SeO3^2−, Sodium selenite] | >16 mM | >16 mM | >16 mM |  |  |  | 
O=S(=O)([O-])[O-].[Zn+2] [Zn^2 +, zinc sulfate] |  |  |  |  |  | >31 mM | 
